In paper PMC6347521 (Current protocols in toxicology, 2018):
Like-named read-outs stand apart in the source and are kept apart here.

Experiments:
[1] = tested on: Hep3B human hepatoma cell line; experiment: cells; format: cell-based; conditions: read-out: IC50 TMRM
[2] = tested on: Hep3B human hepatoma cell line; experiment: cells; format: cell-based; conditions: read-out: IC50 Hoechst
[3] = tested on: Hep3B human hepatoma cell line; experiment: cells; format: cell-based; conditions: read-out: IC50 mBCl
[4] = tested on: Hep3B human hepatoma cell line; experiment: cells; format: cell-based; conditions: read-out: IC50 Calcein AM
2D = conditions: read-out: IC50 2D (literature review), cited from earlier work
rat = conditions: ref not given; cited from earlier work
[5] = 2D cell culture, ref literature review

Compound | IC50 ([1]; Homo sapiens, Hep3B, 48 h) [µM] | IC50 ([2]; Homo sapiens, Hep3B, 48 h) [µM] | IC50 ([3]; Homo sapiens, Hep3B, 48 h) [µM] | IC50 ([4]; Homo sapiens, Hep3B, 48 h) [µM] | IC50 (2D) [µM] | IC50 (2D; [5]) [µM] | LD50 mg/kg (rat oral) (rat) [mg/kg] | IC50 [1] [µM] | IC50 [2] [µM] | IC50 [3] [µM] | IC50 [4] [µM]
CC(=O)Nc1ccc(O)cc1 [Acetaminophen] | > 2100 | > 2100 | > 2100 | > 2100 | 29800 | – | – | – | – | – | –
CC1=CC(=O)c2ccccc2C1=O [Menadione] | 11.5 ± 2.5 | 20 ± 1 | 15 ± 2.3 | 11 ± 3.8 | – | 13.5 ± 3.6 | – | – | – | – | –
C=C(C)[C@H]1Cc2c(ccc3c2O[C@@H]2COc4cc(OC)c(OC)cc4[C@@H]2C3=O)O1 [Rotenone] | 0.6 ± 0.3 | 3 | 1.7 ± 0.7 | 8 ± 6 | – | 1.7 ± 1.2 | 30 | – | – | – | –
CC/C(=C(\c1ccccc1)c1ccc(OCCN(C)C)cc1)c1ccccc1 [Tamoxifen] | – | – | – | – | – | – | 4100 | – | – | – | –
O=C([O-])CC(O)(CC(=O)[O-])C(=O)[O-].[Na+].[Na+].[Na+] [Sodium citrate] | – | – | – | – | > 1400 | – | – | > 1400 | > 1400 | > 1400 | > 1400
CC[C@H](C)C(=O)O[C@H]1C[C@@H](C)C=C2C=C[C@H](C)[C@H](CC[C@@H]3C[C@@H](O)CC(=O)O3)[C@H]21 [Lovastatin] | 152 ± 6.7 | 188 ± 17.7 | 195 ± 5 | 150 | 20 ± 3.7 | – | 5000 | – | – | – | –
